Data set [1] has as its target T1, Serine/threonine-protein kinase haspin (Homo sapiens, UniProt Q8TF76).
T1 sequence (Q8TF76 whole entry): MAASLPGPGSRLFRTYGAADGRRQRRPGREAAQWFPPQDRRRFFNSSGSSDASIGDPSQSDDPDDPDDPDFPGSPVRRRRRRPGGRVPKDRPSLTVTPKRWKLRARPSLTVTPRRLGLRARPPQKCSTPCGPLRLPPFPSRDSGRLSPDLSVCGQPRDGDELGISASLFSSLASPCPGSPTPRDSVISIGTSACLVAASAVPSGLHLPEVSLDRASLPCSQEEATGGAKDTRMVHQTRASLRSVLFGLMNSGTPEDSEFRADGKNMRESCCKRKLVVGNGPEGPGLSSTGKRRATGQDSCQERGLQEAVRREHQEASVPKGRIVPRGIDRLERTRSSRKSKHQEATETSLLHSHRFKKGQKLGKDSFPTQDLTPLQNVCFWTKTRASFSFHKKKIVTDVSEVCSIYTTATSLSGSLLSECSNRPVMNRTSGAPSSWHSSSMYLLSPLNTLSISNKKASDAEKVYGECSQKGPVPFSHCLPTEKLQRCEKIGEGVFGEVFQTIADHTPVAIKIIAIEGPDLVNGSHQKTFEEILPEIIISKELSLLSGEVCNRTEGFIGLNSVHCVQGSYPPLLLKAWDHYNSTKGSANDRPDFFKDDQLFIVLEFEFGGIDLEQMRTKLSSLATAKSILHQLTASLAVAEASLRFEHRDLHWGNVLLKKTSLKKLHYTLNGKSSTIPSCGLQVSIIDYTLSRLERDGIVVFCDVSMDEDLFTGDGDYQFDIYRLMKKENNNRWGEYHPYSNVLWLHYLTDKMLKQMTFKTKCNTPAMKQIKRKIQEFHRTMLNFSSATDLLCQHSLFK
Briefly: Inhibition of GSG2 (unknown origin).

Data set [2] deals with Serine/threonine-protein kinase haspin (Homo sapiens) (UniProt Q8TF76). Briefly: Inhibition of GSG2 (unknown origin) at 0.1 uM relative to control.
Data set [3] has as its target Interleukin-1 receptor-associated kinase 3 (Homo sapiens) (UniProt Q9Y616). Briefly: Inhibition of IRAK3 (unknown origin) at 0.1 uM relative to control.
The target of data set [4] is CDK8/Cyclin C (Homo sapiens) (UniProt P49336+P24863). Briefly: Inhibition of CDK8/cyclin C (unknown origin) at 0.1 uM relative to control. In kind it is protein-complex assay.
Data set [5] deals with Cyclin-C/Cyclin-dependent kinase 19 (Homo sapiens) (UniProt Q9BWU1+P24863). Put plainly: Inhibition of CDK11/cyclin C (unknown origin) at 0.1 uM relative to control. In kind it is protein-complex assay.
For data set [6], the target named is T2, Interleukin-1 receptor-associated kinase 3 (Homo sapiens, UniProt Q9Y616).
T2 sequence (Q9Y616 whole entry): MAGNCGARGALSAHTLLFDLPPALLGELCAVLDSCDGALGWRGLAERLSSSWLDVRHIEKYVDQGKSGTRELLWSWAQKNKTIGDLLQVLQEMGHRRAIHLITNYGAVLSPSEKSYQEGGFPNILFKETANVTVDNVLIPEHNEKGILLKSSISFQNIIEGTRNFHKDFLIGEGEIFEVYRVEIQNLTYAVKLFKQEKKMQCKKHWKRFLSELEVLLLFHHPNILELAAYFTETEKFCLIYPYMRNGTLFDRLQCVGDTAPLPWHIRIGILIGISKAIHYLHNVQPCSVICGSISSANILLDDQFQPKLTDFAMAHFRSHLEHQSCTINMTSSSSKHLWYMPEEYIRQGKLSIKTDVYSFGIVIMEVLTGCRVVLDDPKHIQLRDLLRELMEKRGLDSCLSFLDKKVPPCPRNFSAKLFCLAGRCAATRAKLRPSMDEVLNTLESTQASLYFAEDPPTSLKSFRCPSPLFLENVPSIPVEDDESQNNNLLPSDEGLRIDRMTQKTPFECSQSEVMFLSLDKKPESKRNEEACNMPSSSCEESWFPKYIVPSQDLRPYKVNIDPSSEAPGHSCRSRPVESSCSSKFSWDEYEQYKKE
Put plainly: Inhibition of kinase tracer 236 binding to recombinant human full-length GST-tagged IRAK3 expressed in insect cells by Lanthascreen Eu kinase binding assay. In general terms: TR-FRET usually uses a lanthanide donor and a delayed reading to cut background.

For data set [7], the target named is T3, Protein cereblon/Interleukin-1 receptor-associated kinase 3 (Homo sapiens, UniProt Q9Y616+Q96SW2). Briefly: Protac activity at CRBN/IRAK3 in human PBMC derived primary macrophages assessed as induction of IRAK3 degradation at 0.3 uM preincubated for 8 hrs followed by LPS-stimulation and measured after 8 to 32 hrs by Western blot analysis. The format is tissue-based. To be noted: Primary macrophage. In general terms: In western blotting, separated proteins are transferred to a membrane and probed.
Target sequence in this assay (Q96SW2 whole entry, looked up, one chain of several): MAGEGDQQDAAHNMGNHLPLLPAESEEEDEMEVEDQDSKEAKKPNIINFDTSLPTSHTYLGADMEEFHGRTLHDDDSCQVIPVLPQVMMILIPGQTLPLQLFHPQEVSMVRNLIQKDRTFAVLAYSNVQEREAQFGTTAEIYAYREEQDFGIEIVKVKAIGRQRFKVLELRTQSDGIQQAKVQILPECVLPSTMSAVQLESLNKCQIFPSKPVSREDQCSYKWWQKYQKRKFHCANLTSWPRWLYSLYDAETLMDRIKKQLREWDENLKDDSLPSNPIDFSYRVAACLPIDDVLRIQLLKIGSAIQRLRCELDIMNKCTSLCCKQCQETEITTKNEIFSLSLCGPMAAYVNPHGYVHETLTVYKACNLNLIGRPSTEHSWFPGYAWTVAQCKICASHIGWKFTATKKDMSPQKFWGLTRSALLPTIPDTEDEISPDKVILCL

Data set [8] concerns the target T3, Protein cereblon/Interleukin-1 receptor-associated kinase 3. Briefly: Protac activity at CRBN/IRAK3 in human THP1 cells assessed as induction of IRAK3 degradation at 0.1 to 10 uM measured after 24 hrs by Western blot analysis. To be noted: THP-1, dose microM 0.1-10, time […]. The format is cell-based.
Target sequence in this assay (Q96SW2 whole entry, looked up, one chain of several): as above
Data set [9] deals with T4, Interleukin-1 receptor-associated kinase 4 (Homo sapiens, UniProt Q9NWZ3).
T4 sequence (Q9NWZ3 whole entry): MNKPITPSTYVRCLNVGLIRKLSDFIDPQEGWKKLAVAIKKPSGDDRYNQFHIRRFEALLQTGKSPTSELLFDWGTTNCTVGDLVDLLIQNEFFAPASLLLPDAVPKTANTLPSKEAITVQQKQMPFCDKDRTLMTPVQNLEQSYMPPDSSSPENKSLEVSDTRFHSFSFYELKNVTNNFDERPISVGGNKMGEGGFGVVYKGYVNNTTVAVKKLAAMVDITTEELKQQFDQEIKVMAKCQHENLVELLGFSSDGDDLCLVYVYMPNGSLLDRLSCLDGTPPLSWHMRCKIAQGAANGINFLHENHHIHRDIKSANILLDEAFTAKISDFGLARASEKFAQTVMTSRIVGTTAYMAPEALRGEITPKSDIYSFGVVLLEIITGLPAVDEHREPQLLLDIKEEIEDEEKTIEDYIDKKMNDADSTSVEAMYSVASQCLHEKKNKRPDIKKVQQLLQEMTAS
Briefly: Inhibition of recombinant human full-length His-tagged IRAK4 expressed in baculovirus expression system using 5-FAM-IPTSPITTTYFFFKKK-COOH as substrate measured after 240 mins by mobility shift assay.

Data set [10] addresses Interleukin-1 receptor-associated kinase 1 (Homo sapiens, UniProt P51617). Put plainly: Inhibition of recombinant human N-terminal GST-tagged IRAK1 (194 to 712 residues) expressed in baculovirus expression system using 5-FAM-KKKVSRSGLYRSPSMPENLNRPR-COOH as substrate measured after 240 mins by mobility shift assay.
The next data set concerns the target Protein cereblon (Homo sapiens, UniProt Q96SW2). Briefly: Inhibition of CRBN (unknown origin).
The target in data set [11] is T3, Protein cereblon/Interleukin-1 receptor-associated kinase 3. Put plainly: Protac activity at CRBN/IRAK3 in LPS-induced human THP1 cells assessed as induction of IRAK3 degradation after 16 hrs by Western blot analysis. The format is cell-based. To be noted: thp-1.
Target sequence in this assay (Q96SW2 whole entry, one chain of several): as the sequence (Q96SW2 whole entry, looked up, one chain of several) above
The target is the same in data set [12]. Briefly: Protac activity at CRBN/IRAK3 in human PBMC derived primary macrophages assessed as induction of IRAK3 degradation at 0.3 uM measured after 8 to 32 hrs by Western blot analysis. In kind it is tissue-based. The conditions noted are these: Primary macrophage, time hrs 8-32.
Target sequence in this assay (Q96SW2 whole entry, looked up, one chain of several): as the sequence (Q96SW2 whole entry, looked up, one chain of several) above
Data set [13] is described as follows: Octanol/buffer partition coefficient, log D of the compound at pH 7.4 by shake-flask method. The format is physicochemical.
Data set [14] can be described thus: Intrinsic apparent permeability across apical to basolateral side in human Caco-2 cells.
The nature of data set [15]: Efflux ratio of apparent permeability in human Caco-2 cells. (Caco-2 monolayers are a common model of the intestinal barrier.)

The structures appear in SMILES notation. pIC50: −log10 of the molar value. Calls of active or inactive are those of the source. The calls are words filed in the database; no cut-off is given here.

Chain of Interleukin-1 receptor-associated kinase 1 (P51617 whole entry, the tested form may be a part): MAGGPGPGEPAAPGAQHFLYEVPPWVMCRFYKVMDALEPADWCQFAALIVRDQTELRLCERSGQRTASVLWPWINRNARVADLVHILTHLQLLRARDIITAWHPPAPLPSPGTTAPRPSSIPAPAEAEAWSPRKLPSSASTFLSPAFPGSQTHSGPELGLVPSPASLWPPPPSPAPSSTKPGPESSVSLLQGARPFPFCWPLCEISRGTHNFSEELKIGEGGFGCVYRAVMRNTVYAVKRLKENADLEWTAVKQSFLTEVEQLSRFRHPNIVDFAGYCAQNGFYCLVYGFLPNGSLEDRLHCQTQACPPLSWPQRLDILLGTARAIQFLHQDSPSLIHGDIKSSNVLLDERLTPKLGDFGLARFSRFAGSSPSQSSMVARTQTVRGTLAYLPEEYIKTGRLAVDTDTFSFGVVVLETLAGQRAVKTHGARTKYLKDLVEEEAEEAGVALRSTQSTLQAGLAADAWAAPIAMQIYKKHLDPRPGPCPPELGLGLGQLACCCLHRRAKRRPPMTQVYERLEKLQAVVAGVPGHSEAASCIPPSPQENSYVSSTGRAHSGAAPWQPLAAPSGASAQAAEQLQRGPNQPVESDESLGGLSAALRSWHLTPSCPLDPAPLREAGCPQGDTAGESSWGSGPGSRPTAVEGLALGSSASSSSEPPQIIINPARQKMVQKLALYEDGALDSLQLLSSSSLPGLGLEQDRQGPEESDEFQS
Chain of Protein cereblon (Q96SW2 whole entry): as the sequence (Q96SW2 whole entry, looked up, one chain of several) above

As for `CC(=O)N1CCN([C@H]2CC[C@@H](Nc3ncnn4ccc(C(C)C)c34)CC2)CC1`, the pIC50 – broadly, −log10 of the IC50, conventionally taken in molar units – in data set [1] is 6.82; in data set [6] it was 8.22. Further, the inhibition (in general, the relative decrease from the control value, in per cent) in [2] turned out to be 55%; in [3] it was 91%; in data set [4] it was 39%; in [5] it was 51%.
For `CC(C)c1ccn2ncnc(N[C@H]3CC[C@@H](N4CCN(C(=O)CCC(=O)N5CCC(CCN6CCN(c7ccc8c(c7)C(=O)N(C7CCC(=O)N(C)C7=O)C8=O)CC6)CC5)CC4)CC3)c12` (stereo partly specified), the outcome in data set [7], in [8] and in data set [12] was inactive. The pIC50 is less than 6.00 in [9], 5.47 in [10], less than 4.92 against Protein cereblon and 8.40 in [6]. For the same compound, the DC50 (as a rule, the midpoint of the concentration-degradation curve) in data set [11] was greater than 10000 nM. The logD (as a rule, the decadic logarithm of the distribution of all forms, ionised or not, between an organic phase and buffer at a given pH) in data set [13] worked out at 3.7.
With `CC(=O)N1CCN([C@H]2CC[C@@H](Nc3ncnc4[nH]cc(C(C)C)c34)CC2)CC1`, in data set [14], the Papp A→B (as a rule, how fast a substance crosses the layer from the apical side) is 12 ×10⁻⁶ cm/s. Further, in [15], the efflux ratio (usually a quotient of directional permeabilities that is used to spot active efflux) is 4.3. The pIC50 in data set [9] was 6.08; in data set [10], 5.85; in [6], 8.40. This compound also registered a logD in [13] of 2.3.
